Where a name gives a salt, the structure may show the parent alone.
How the values were obtained:
[1] = Mass balance/recovery, metabolite profile, pharmacokinetics and safety of radiolabeled CYT-0387; assay type: in vivo, human; settings: for share of circulating radioactivity: plasma
Protocol: CYT-0387 is a selective small molecule inhibitor of Janus kinase 1 and 2 (JAK1/JAK2) currently under investigation to treat myelofibrosis. This study evaluated the mass balance/recovery, metabolite profile, pharmacokinetics, and safety of radiolabeled CYT-0387 in humans.
Six healthy individuals (subjects) received a single oral dose of 200 mg CYT-0387 containing ˜100 μCi of [^14C]-CYT-0387. Blood samples were collected up to 21 days or until plasma radioactivity in 2 consecutive samples was below detection limit or urine and feces sampling was discontinued. Urine/feces samples were collected up to 21 days or until ≧90% administered dose was recovered in feces and urine and radioactivity in 2 consecutive sampling intervals were ≦1% administered dose. Plasma concentrations of CYT-0387 and metabolites were measured using LC-MS/MS and total radioactivity assessed by liquid scintillation counting. Metabolite profiling was performed in select urine, feces, and plasma samples. Safety assessments were performed throughout the study.

[2] = Solid form hygroscopicity and stability; assay type: physicochemical; settings: exposed to moisture
Protocol: Dynamic Vapor Sorption: The hygroscopicity of N-(cyanomethyl)-4-(2-(4-morpholinophenylamino)pyrimidin-4-yl)benzamide dihydrochloride monohydrate Form II was evaluated at room temperature using a dynamic vapor sorption (DVS) instrument (TGA Q5000 TA Instruments, New Castle, Del.). Water adsorption and desorption were studied as a function of relative humidity (RH) over the range of 0 to 90% at room temperature. The humidity in the chamber was increased from the initial level 50% RH) to 60% RH and held until the solid and atmosphere reached equilibration. The equilibrium test was continued until passed or expired after 10 hours. At this point, RH was raised 10% higher and the process was repeated until 90% RH was reached and equilibrated. During this period, the water sorption was monitored. For desorption, the relative humidity was decreased in a similar manner to measure a full sorption/desorption cycle. All experiments were operated in dm/dt mode (mass variation over time) to determine the equilibration endpoint. Approximately 4 mg of solid CYT-0387 was used. Data analysis was conducted using Universal Analysis 2000 Version 4.7A (TA Instruments, New Castle, Del., USA).

| hygroscopicity and physical stability [2] | Structure (SMILES) | share of circulating radioactivity [1] [%] | excreted in feces [1] | excreted in urine ([1]; urine) |
| --- | --- | --- | --- | --- |
|  | NC(=O)CNC(=O)c1ccc(-c2ccnc(Nc3ccc(N4CCOCC4=O)cc3)n2)cc1 [Compound M8, N-(2-amino-2-oxoethyl)-4-(2-((4-(3-oxomorpholino)phenyl)amino)pyrimidin-4-yl)benzamide] | 5.8 |  |  |
|  | O=C(O)c1ccc(-c2ccnc(Nc3ccc(N4CCOCC4=O)cc3)n2)cc1 [Compound M14, 4-(2-((4-(3-oxomorpholino)phenyl)amino)pyrimidin-4-yl)benzoic acid] |  | 21.4 % of the dose |  |
|  | CC(=O)Nc1ccc(Nc2nccc(-c3ccc(C(=O)NCC#N)cc3)n2)cc1 [Compound M20, 4-(2-((4-acetamidophenyl)amino)pyrimidin-4-yl)-N-(cyanomethyl)benzamide] | 2.3 |  |  |
|  | N#CCNC(=O)c1ccc(-c2ccnc(Nc3ccc(N4CCOCC4=O)cc3)n2)cc1 [Compound M21, N-(cyanomethyl)-4-(2-{[4-(3-oxomorpholin-4-yl)phenyl]amino}pyrimidin-4-yl)benzamide] | 64.2 | 12.7 % of the dose | 11.5 % of the dose |
| hygroscopic and physically unstable | N#CCNC(=O)c1ccc(-c2ccnc(Nc3ccc(N4CCOCC4)cc3)n2)cc1 [N-(cyanomethyl)-4-(2-(4-morpholinophenylamino)pyrimidin-4-yl)benzamide (CYT-0387) dihydrochloride anhydrous Form I] |  |  |  |

Reference: patent publication US9469613B2, “(N-(cyanomethyl)-4-(2-(4-morpholinophenylamino)pyrimidin-4-yl)benzamide” (Gilead Sciences, Inc., priority 2014, dated 2016)
